Measured values as given in publication PMC10349806 (Nature Communications, 2023).
Several values for one entry are separate records, joined by “and”; a condition that tells them apart may be missing. Identical values can stand only once.

Columns and labels:
PfCRT variant Y276A = target: T1, PfCRT variant Y276A (Plasmodium falciparum, UniProt Q9N623, A220S/I356T/K76T/M74I/N326S/N75E/Q271E/R371I/Y276A); experiment: CQ uptake assay, oocytes expressing Y276A; format: cell-based
T1 sequence (Q9N623 1-424 M74I/N75E/K76T/A220S/Q271E/Y276A/N326S/I356T/R371I): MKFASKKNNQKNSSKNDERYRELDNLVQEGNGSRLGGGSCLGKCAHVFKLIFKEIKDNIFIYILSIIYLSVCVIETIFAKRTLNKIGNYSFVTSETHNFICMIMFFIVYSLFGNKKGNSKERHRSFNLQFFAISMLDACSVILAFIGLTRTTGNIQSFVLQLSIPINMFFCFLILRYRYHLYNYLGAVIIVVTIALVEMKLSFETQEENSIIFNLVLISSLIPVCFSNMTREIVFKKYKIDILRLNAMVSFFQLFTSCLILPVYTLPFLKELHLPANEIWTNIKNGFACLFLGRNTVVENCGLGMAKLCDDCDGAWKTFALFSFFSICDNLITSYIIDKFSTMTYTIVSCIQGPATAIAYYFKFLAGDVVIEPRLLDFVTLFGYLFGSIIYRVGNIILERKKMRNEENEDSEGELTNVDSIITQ
Protocol: (§1) Site-directed mutagenesis of PfCRT^Dd2 was performed as described using the megaprimer method with overlap extension[21],[54]. The primer pairs used are listed in Supplementary Table 6. Please note that a codon-optimized and oocyte-adapted version of PfCRT^Dd2 was used[22] (Supplementary Fig. 16). The resulting DNA fragment was cloned into the SP64T expression vector and verified by sequencing.
(§2) Oocytes were obtained as described previously. Briefly, adult (>2 years old) female X. laevis frogs (NASCO) were anesthetized in a cooled solution of ethyl 3-amino benzoate methanesulfonate (0.1%, w/v), followed by a surgical removal of parts of the ovary. The ovary lobes were carefully dissected and small pieces of oocytes were incubated in Ca^2+-free ND96 buffer (96 mM NaCl, 2 mM KCl, 1 mM MgCl2 buffered with 5 mM HEPES/NaOH, pH 7.5) supplemented with collagenase D (0.1%, w/v; Roche), BSA (0.5%, w/v), and 9 mm Na2HPO4 at 18 °C for 14-16 h while gentle shaking. After incubation, the oocytes were carefully washed several times with ND96 buffer (96 mM NaCl, 2 mM KCl, 1.8 mM CaCl2, 1 mM MgCl2 buffered with 5 mM HEPES/NaOH, pH 7.5) supplemented with 100 mg l^−1 gentamycin). Defolliculated and healthy-looking stage V-VI oocytes were manually selected for RNA microinjection. The RNA was generated as following: The codon-optimized sequences of PfCRT variants were cloned into the pSP64T expression vector. After vector linearization using the restriction endonucleases BamHI or SalI (New England Biolabs), transcription was performed using the in vitro SP6 mMessage mMachine Kit (Ambion)[34]. The obtained RNA was kept at −80 °C and diluted with nuclease-free water to a concentration of 0.6 μg μl^−1. Precision-bore glass capillary tubes (3.5-inch glass capillaries; Drummond Scientific Co.) were pulled on a vertical puller (P-87 Flaming/Brown micropipette puller, Sutter Instrument Co.), graduated, and placed on a microinjector (Nanoject II Auto-Nanoliter Injector, Drummond Scientific Co.). 50 nl of nuclease-free water alone (control oocytes) or 50 nl of 0.6 μg μl^−1 RNA were injected under stereomicroscopic control. Injected oocytes were incubated for 46–72 h at 18 °C with twice-daily buffer changes before usage in experiments.
(§3) Drug uptake assays were performed as described previously[21],[22],[24],[34]. […] The direction of radio-labeled drug transport is here from the mostly acidic extracellular solution (pH 4.5 or 6.0, as indicated) into the oocyte cytosol (pH ∼ 7.2), which corresponds to the efflux of drug from the acidic digestive vacuole (pH 5.2) into the parasite cytoplasm (pH 7.2). The topology of PfCRT in the oolemma is such that both the N- and C-terminus face the extracellular milieu[3],[22]. In the parasite, the N- and C-terminus face the lumen of the digestive vacuole. […] For determination of the amount of drug uptake for each oocyte, the reaction medium was removed and the oocytes were washed three times with 2 ml of ice-cold ND96 buffer. Each oocyte was individually transferred to a scintillation vial containing 5% sodium dodecyl sulfate (200 μl) for lysis. […] Oocytes that were injected with water instead of RNA were analyzed in parallel, representing the uptake of a drug by diffusion and/or endogenous permeation pathways. The resulting value represents the “background“ level of drug accumulation in oocytes (in-depth discussion in[22]). The specific PfCRT-mediated uptake was determined by subtracting the corresponding background value measured in water-injected oocytes from that of PfCRT-expressing oocytes. In all cases, at least three separate experiments were performed on oocytes from different frogs (biological replicate), and for each condition in an experiment, measurements were made from 10 oocytes per treatment. For pH 5.5, 6.0, and 6.5, ND96 was buffered with 5 mM MES/Tris base.

PfCRT variant N84A = experiment: CQ uptake assay, oocytes expressing N84A; format: cell-based, Plasmodium falciparum
Protocol: as §1, §2, §3

[1] = Y276A, 50 µM CQ, 1 h, mean ± SEM
[2] = N84A, 50 µM CQ, 1 h, mean ± SEM

CCN(CC)CCCC(C)Nc1ccnc2cc(Cl)ccc12 (stereo not drawn) [CQ, chloroquine]
Activity at pH 4.5 (PfCRT variant Y276A; [1]): 1.50 ± 0.12 pmol h-1 oocyte-1
Activity at pH 6.0 (PfCRT variant Y276A; [1]): 3.51 ± 0.35 pmol h-1 oocyte-1
R-value (PfCRT variant Y276A; Y276A, CQ transport at pH 4.5 / pH 6.0): 0.45 ± 0.09
Y276A transport activity pH 4.5 (PfCRT variant Y276A; pH 4.5, single replicates, Fig 1d left): 1.28 pmol oocyte-1 h-1 and 1.46 pmol oocyte-1 h-1
Y276A R-value (PfCRT variant Y276A; pH 4.5 vs pH 6.0, Fig 1d left): 0.34 and 0.66 and 0.36
Y276A transport activity pH 6.0 (PfCRT variant Y276A; pH 6.0, single replicates, Fig 1d left): 3.78 pmol oocyte-1 h-1 and 2.68 pmol oocyte-1 h-1 and 4.08 pmol oocyte-1 h-1
Activity at pH 4.5 (PfCRT variant N84A; [2]): 1.41 ± 0.23 pmol h-1 oocyte-1
Activity at pH 6.0 (PfCRT variant N84A; [2]): 3.24 ± 0.32 pmol h-1 oocyte-1
R-value (PfCRT variant N84A; N84A, CQ transport at pH 4.5 / pH 6.0): 0.42 ± 0.04 and 0.42
N84A transport activity pH 4.5 (PfCRT variant N84A; pH 4.5, individual replicates (Fig 6a)): 1.45 pmol oocyte-1 h-1 and 0.73 pmol oocyte-1 h-1 and 1.46 pmol oocyte-1 h-1 and 2.00 pmol oocyte-1 h-1
N84A transport activity pH 6.0 (PfCRT variant N84A; pH 6.0, individual replicates (Fig 6a)): 3.16 pmol oocyte-1 h-1 and 3.18 pmol oocyte-1 h-1 and 4.19 pmol oocyte-1 h-1
N84A R-value (PfCRT variant N84A; transport activity pH 4.5 relative to pH 6.0 (Fig 6a)): 0.46 and 0.30 and 0.48
